Data from US5952321A, “Substituted azetidinones as anti-inflammatory and antidegenerative agents” (Merck & Co., Inc., priority 1996, dated 1999).
Structures can show the parent of a compound that is named as a salt. Where two headings read alike, the source gives them in different places.

Target: T1, Human Polymorphonuclear Leukocyte Elastase (Homo sapiens, UniProt P08246)
T1 sequence (P08246 30-267): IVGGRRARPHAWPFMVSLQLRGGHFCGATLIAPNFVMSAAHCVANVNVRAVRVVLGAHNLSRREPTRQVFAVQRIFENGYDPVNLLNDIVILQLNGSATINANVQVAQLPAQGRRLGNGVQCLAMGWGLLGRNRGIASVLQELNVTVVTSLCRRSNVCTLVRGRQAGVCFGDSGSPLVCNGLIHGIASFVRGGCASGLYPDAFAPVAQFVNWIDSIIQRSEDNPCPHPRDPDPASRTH
Assay: Inhibition of human polymorphonuclear leukocyte elastase via hydrolysis of Boc-AAPAN or Boc-AAPVN
Format: biochemical
Details: second order rate constant for inactivation of the enzyme, read-out: Kobs /[I]
Protocol: Enzyme Assays for the Inhibition of Human Polymorphonuclear Leukocyte Elastase Via Hydrolysis of N-t-Boc-alanyl-alanyl-prolylalanine-p-nitroanilide (Boc-AAPAN) or […] (Boc-AAPVN) Reagent:
0.05M TES (N-tris[hydroxymethyl]methyl-2-amino-ethanesulfonic acid) Buffer, pH 7.5.
0.2 mM Boc-AAPAN or Boc-AAPVN.
To prepare substrate, the solid was first dissolved in 10.0 ml DMSO. Buffer at pH 7.5 was then added to a final volume of 100 ml.
Crude extract of human polymorphonuclear leukocytes (PMN) containing elastase activity.
Inhibitors (azetidinones) to be tested dissolved in DMSO just before use.
To 1.0 ml of 0.2 mM Boc-AAPAN in a cuvette, 0.01-0.1 ml of DMSO with or without inhibitor was added. After mixing, a measurement was taken at 410 mμ to detect any spontaneous hydrolysis due to presence of test compound. 0.05 Milliliters of PMN extract was then added and the ΔOD/min at 410 mμ was measured and recorded. Beckman model 35 spectrophotometer was used.
Results in Tables I to III were reported as ID50, effective dosage in micrograms per milliliter (μg/ml) for 50% inhibition of the enzyme activity 2 minutes after zero time.
Results were also expressed as Ki, the micromolar concentration of the inhibitor (μM) giving 50% of the control enzyme activity; or as ^k obs/I which is the second order rate constant in per mole per second for inactivation of the enzyme.
The elastase activity in the crude PMN extract may vary from one preparation to another. A control of each new batch is run, and the volume added in the assay procedure is adjusted according to activity.

SMILES	kinact/KI (pH 7.5, Table I)	other results
CCC[C@@H](NC(=O)N1C(=O)C(CC)(CC)[C@@H]1Oc1ccc(CCCCN(C)C)cc1)c1ccc(C)cc1 [R4=Me; R5=Me; n=4]	–	kinact/KI (pH 7.5, Table II): 525000 M⁻¹ s⁻¹
CCC[C@@H](NC(=O)N1C(=O)C(CC)(CC)[C@@H]1Oc1ccc(C(COC)N(C)C(C)C)cc1)c1ccc(C)cc1 (some centres unmarked) [R4=Me; R5=i-Pr; R6=CH2 OMe]	800000 M⁻¹ s⁻¹	–
CCC[C@@H](NC(=O)N1C(=O)C(CC)(CC)[C@@H]1Oc1ccc(CN(C)CCN(C)C(=O)OC)cc1)c1ccc(C)cc1 [R4=Me; R5=CH2 CH2 N(Me)COOMe; R6=H]	1.1e+06 M⁻¹ s⁻¹	–
CCC[C@@H](NC(=O)N1C(=O)C(CC)(CC)[C@@H]1Oc1ccc(CN(CC)C(C)COC)c(C)c1)c1ccc(C)cc1 (some centres unmarked)	–	kinact/KI (pH 7.5, Table III): 400000 M⁻¹ s⁻¹
CCC[C@@H](NC(=O)N1C(=O)C(CC)(CC)[C@@H]1Oc1ccc(CNC(=O)Cc2cccnc2)cc1)c1ccc(C)cc1 [R4=H; R5=COCH2-3-pyridyl; R6=H, (4S)-3,3-Diethyl-1-[(R)-α-(n-propyl)-4-(methyl)benzylaminocarbonyl]-4-[(4-((3-pyridyl)methylcarbonyl)aminomethyl)phenoxy]azetidin-2-one]	1.25e+06 M⁻¹ s⁻¹	–
CCC[C@@H](NC(=O)N1C(=O)C(CC)(CC)[C@@H]1Oc1ccc(C(CC)N(C)CCOC)cc1)c1ccc(C)cc1 (some centres unmarked) [R4=Me; R5=CH2 CH2 OMe; R6=Et]	550000 M⁻¹ s⁻¹	–
CCC[C@@H](NC(=O)N1C(=O)C(CC)(CC)[C@@H]1Oc1ccc(C(C)N(C)CCOC(=O)N(C)C)cc1)c1ccc(C)cc1 (some centres unmarked) [R4=Me; R5=CH2 CH2 OCONMe2; R6=Me]	925000 M⁻¹ s⁻¹	–
CCC[C@@H](NC(=O)N1C(=O)C(CC)(CC)[C@@H]1Oc1ccc(CN(C)CC(=O)N(CCC)CCC)cc1)c1ccc(C)cc1 [R4=Me; R5=CH2 CON(n-Pr)2; R6=H]	910000 M⁻¹ s⁻¹	–
CCC[C@@H](NC(=O)N1C(=O)C(CC)(CC)[C@@H]1Oc1ccc(CN(C)CCOC(=O)N(CC)CC)cc1)c1ccc(C)cc1 [R4=Me; R5=CH2 CH2 OCONEt2; R6=H]	1.23e+06 M⁻¹ s⁻¹	–
CCC[C@@H](NC(=O)N1C(=O)C(CC)(CC)[C@@H]1Oc1ccc(CN(C)Cc2ccccc2)cc1)c1ccc(C)cc1 [R4=Me; R5=Bn; R6=H]	400000 M⁻¹ s⁻¹	–
CCC[C@@H](NC(=O)N1C(=O)C(CC)(CC)[C@@H]1Oc1ccc(C(COC)N(C)C)cc1)c1ccc2c(c1)OCO2 (mixture of isomers) [3,3-Diethyl-1-[(R)-α-(n-propyl)-(3,4-dioxomethylene)benzylaminocarbonyl]-4-(S)-[4-{1-(RS)-(N,N-dimethylamino)-2-methoxyethyl}phenoxy]azetidin-2-one]	–	kinact/KI (pH 7.5, Table III): 1.9e+06 M⁻¹ s⁻¹
CCC[C@@H](NC(=O)N1C(=O)C(CC)(CC)[C@@H]1Oc1ccc(CN(CC)C(C)COC)cc1)c1ccc2c(c1)OCO2 (some centres unmarked)	–	kinact/KI (pH 7.5, Table III): 1.6e+06 M⁻¹ s⁻¹
CCC[C@@H](NC(=O)N1C(=O)C(CC)(CC)[C@@H]1Oc1ccc(CN(C)CCOC)cc1)c1ccc(OCC)cc1	–	kinact/KI (pH 7.5, Table III): 1.3e+06 M⁻¹ s⁻¹
CCC[C@@H](NC(=O)N1C(=O)C(CC)(CC)[C@@H]1Oc1ccc(CCCCN(C)Cc2ccccc2)cc1)c1ccc(C)cc1 [R4=Me; R5=Bn; n=4]	–	kinact/KI (pH 7.5, Table II): 640000 M⁻¹ s⁻¹
CCCCN(C)C(=O)OCCN(C)Cc1ccc(O[C@@H]2N(C(=O)N[C@H](CCC)c3ccc(C)cc3)C(=O)C2(CC)CC)cc1 [R4=Me; R5=CH2 CH2 OCON(Me)n-Bu; R6=H]	1.3e+06 M⁻¹ s⁻¹	–
CCC[C@@H](NC(=O)N1C(=O)C(CC)(CC)[C@@H]1Oc1ccc(C(COC)N(CCC)CCC)cc1)c1ccc(C)cc1 (stereo partly drawn) [R4=n-Pr; R5=n-Pr; R6=CH2 OMe, 3,3-Diethyl-1-[(R)-α-(n-propyl)-4-(methyl)benzylaminocarbonyl]-4-(S)-[4-{1-(RS)-(di-n-propyl)-2-methoxyethyl}phenoxy]azetidin-2-one]	1e+06 M⁻¹ s⁻¹	–
CCC[C@@H](NC(=O)N1C(=O)C(CC)(CC)[C@@H]1Oc1ccc(CN(C)CCOC(=O)N(C)C)cc1)c1ccc(C)cc1 [R4=Me; R5=CH2 CH2 OCONMe2; R6=H, (4S)-3,3-Diethyl-1-[(R)-α-n-propyl-(4-methyl)benzylaminocarbonyl]-4-[(4-((2-dimethylaminocarbonyloxy)ethyl)methylaminomethyl)phenoxy]azetidin-2-one]	610000 M⁻¹ s⁻¹	–
CCC[C@@H](NC(=O)N1C(=O)C(CC)(CC)[C@@H]1Oc1ccc(CN(C)CCOc2ccccc2)cc1)c1ccc(C)cc1 [R4=Me; R5=CH2 CH2 OPh; R6=H]	750000 M⁻¹ s⁻¹	–
CCC[C@@H](NC(=O)N1C(=O)C(CC)(CC)[C@@H]1Oc1ccc(C(C)N(CC)CCOC)cc1)c1ccc(C)cc1 (some centres unmarked) [R4=Et; R5=CH2 CH2 OMe; R6=Me]	600000 M⁻¹ s⁻¹	–
CCC[C@@H](NC(=O)N1C(=O)C(CC)(CC)[C@@H]1Oc1cc(C)c(CN(C)CCOC)c(C)c1)c1ccc(C)cc1	–	kinact/KI (pH 7.5, Table III): 300000 M⁻¹ s⁻¹
CCC[C@@H](NC(=O)N1C(=O)C(CC)(CC)[C@@H]1Oc1ccc(CN(C)CCCOC(=O)N(C)C)cc1)c1ccc(C)cc1 [R4=Me; R5=CH2 CH2 CH2 OCONMe2; R6=H]	2.1e+06 M⁻¹ s⁻¹	–
CCC[C@@H](NC(=O)N1C(=O)C(CC)(CC)[C@@H]1Oc1ccc(CN(CC)CCOCCOC)cc1)c1ccc(C)cc1 [R4=Et; R5=CH2 CH2 OCH2 CH2 OMe; R6=H]	1.3e+06 M⁻¹ s⁻¹	–
CCC[C@@H](NC(=O)N1C(=O)C(CC)(CC)[C@@H]1Oc1ccc(CN(CC)CCOC)cc1)c1ccc2c(c1)OCO2	–	kinact/KI (pH 7.5, Table III): 1.9e+06 M⁻¹ s⁻¹

Second part, led by results:

kinact/KI (pH 7.5, Table I)	SMILES	other results
1e+06 M⁻¹ s⁻¹	CCC[C@@H](NC(=O)N1C(=O)C(CC)(CC)[C@@H]1Oc1ccc(C(C)N2CCC(OC)C2)cc1)c1ccc(C)cc1 (some centres unmarked) [R4+R5=--CH2 CH2 CH(OMe)CH2 --; R6=Me]	–
1.15e+06 M⁻¹ s⁻¹	CCC[C@@H](NC(=O)N1C(=O)C(CC)(CC)[C@@H]1Oc1ccc(CN2CCC(O)CC2)cc1)c1ccc(C)cc1 [R4+R5=--CH2 CH2 CH(OH)CH2 CH2 --; R6=H]	–
700000 M⁻¹ s⁻¹	CCC[C@@H](NC(=O)N1C(=O)C(CC)(CC)[C@@H]1Oc1ccc(CN(C)CCOC(=O)NC)cc1)c1ccc(C)cc1 [R4=Me; R5=CH2 CH2 OCONHMe; R6=H]	–
915000 M⁻¹ s⁻¹	CCC[C@@H](NC(=O)N1C(=O)C(CC)(CC)[C@@H]1Oc1ccc(CN2CCSCC2)cc1)c1ccc(C)cc1 [R4+R5=--CH2 CH2 SCH2 CH2 --; R6=H]	–
560000 M⁻¹ s⁻¹	CCC[C@@H](NC(=O)N1C(=O)C(CC)(CC)[C@@H]1Oc1ccc(CN(C)CCO)cc1)c1ccc(C)cc1 [R4=Me; R5=CH2 CH2 OH; R6=H]	–
1.7e+06 M⁻¹ s⁻¹	CCC[C@@H](NC(=O)N1C(=O)C(CC)(CC)[C@@H]1Oc1ccc(CN2CCN(C(=O)c3ccccc3)CC2)cc1)c1ccc(C)cc1 [R4+R5=--CH2 CH2 N(Bz)CH2 CH2 --; R6=H]	–
440000 M⁻¹ s⁻¹	CCC[C@@H](NC(=O)N1C(=O)C(CC)(CC)[C@@H]1Oc1ccc(CN(C)CCC(=O)O)cc1)c1ccc(C)cc1 [R4=Me; R5=CH2 CH2 CO2 H--TFA; R6=H]	–
1.6e+06 M⁻¹ s⁻¹	CCC[C@@H](NC(=O)N1C(=O)C(CC)(CC)[C@@H]1Oc1ccc(CN2CCN(C(=O)C(C)C)CC2)cc1)c1ccc(C)cc1	–
1.6e+06 M⁻¹ s⁻¹	CCC[C@@H](NC(=O)N1C(=O)C(CC)(CC)[C@@H]1Oc1ccc(Cn2ccnc2)cc1)c1ccc(C)cc1 [R4+R5=--CHCHNCH--; R6=H]	–
1.28e+06 M⁻¹ s⁻¹	CCC[C@@H](NC(=O)N1C(=O)C(CC)(CC)[C@@H]1Oc1ccc(C(COC)N(C)C)cc1)c1ccc(C)cc1 (mixture of isomers) [R4=Me; R5=Me; R6=CH2 OMe, 3,3-Diethyl-1-[(R)-α-(n-propyl)-4-(methyl)benzylaminocarbonyl]-4-(S)-[4-{1-(RS)-(N,N-dimethylamino)-2-methoxyethyl}phenoxy]azetidin-2-one]	–
1e+06 M⁻¹ s⁻¹	CCC[C@@H](NC(=O)N1C(=O)C(CC)(CC)[C@@H]1Oc1ccc(CN(C)CC2CCCO2)cc1)c1ccc(C)cc1 (some centres unmarked) [R4=Me; R5=CH2 CH(CH2 CH2 CH2 O); R6=H]	–
670000 M⁻¹ s⁻¹	CCC[C@@H](NC(=O)N1C(=O)C(CC)(CC)[C@@H]1Oc1ccc(CN2C(C)CCC2C)cc1)c1ccc(C)cc1 (some centres unmarked) [R4+R5=--CHMeCH2 CH2 CHMe--; R6=H]	–
1.4e+06 M⁻¹ s⁻¹	CCC[C@@H](NC(=O)N1C(=O)C(CC)(CC)[C@@H]1Oc1ccc(CN(C)CC[S+]([O-])CC)cc1)c1ccc(C)cc1 (stereo partly drawn) [R4=Me; R5=CH2 CH2 SOEt; R6=H, (4S)-3,3-Diethyl-1-[(R)-α-n-propyl-(4-methyl)benzylaminocarbonyl]-4-[(4-((2-thioethyl)ethyl)methylaminomethyl)phenoxy]azetidin-2-one, S-oxide]	–
850000 M⁻¹ s⁻¹	CCC[C@@H](NC(=O)N1C(=O)C(CC)(CC)[C@@H]1Oc1ccc(CNC(=O)Cc2c[nH]cn2)cc1)c1ccc(C)cc1 [R4=H; R5=COCH2-4-imidazolyl; R6=H, (4S)-3,3-Diethyl-1-[(R)-α-(n-propyl)-4-(methyl)benzylaminocarbonyl]-4-[(4-((4-imidazolyl)methylcarbonyl)aminomethyl)phenoxy]azetidin-2-one]	–
850000 M⁻¹ s⁻¹	CCC[C@@H](NC(=O)N1C(=O)C(CC)(CC)[C@@H]1Oc1ccc(CN(C)C(C)C)cc1)c1ccc(C)cc1 [R4=Me; R5=i-Pr; R6=H]	–
